Results: patent US6737383B1, “Herbicidal oxadiazolidines” (priority 1999, dated 2004)

Assays:
bedstraw = test: Test B pre/postemergence bedstraw; type: in vivo, Galium aparine
Procedure, shortened: (§1)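 Response is a visual 0-to-10 score relative to untreated plants, where 0 means no effect and 10 means complete control, taken twelve to sixteen days after application. Treatments went onto soil at planting and onto foliage of 1- to 4-leaf plants, using a surfactant-containing non-phytotoxic solvent.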

velvetleaf = test: Test B pre/postemergence velvetleaf; type: in vivo, Abutilon theophrasti
Procedure, shortened: as §1

rice = test: Test B flood test rice; type: in vivo, Oryza sativa
Procedure, shortened: (§2)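 Flood test on plants grown to the 2-leaf stage; treated plants kept in greenhouse twelve to sixteen days, then visually rated against controls on a 0 (no effect) to 10 (complete control) scale.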

blackgrass = test: Test B pre/postemergence blackgrass; type: in vivo, Alopecurus myosuroides
Procedure, shortened: as §1

surinam grass = test: Test B pre/postemergence surinam grass; type: in vivo, Brachiaria decumbens
Procedure, shortened: as §1

giant foxtail = test: Test B pre/postemergence giant foxtail; type: in vivo, Setaria faberii
Procedure, shortened: as §1

soybean = test: Test B pre/postemergence soybean; type: in vivo, Glycine max
Procedure, shortened: as §1

smallflower flatsedge = test: Test B flood test smallflower flatsedge; type: in vivo, Cyperus difformis
Procedure, shortened: as §2

sugar beet = test: Test B pre/postemergence sugar beet; type: in vivo, Beta vulgaris
Procedure, shortened: as §1

wild oat = test: Test B pre/postemergence wild oat; type: in vivo, Avena fatua
Procedure, shortened: as §1

rape = test: Test B pre/postemergence rape; type: in vivo, Brassica napus
Procedure, shortened: as §1

corn = test: Test B pre/postemergence corn; type: in vivo, Zea mays
Procedure, shortened: as §1

morningglory = test: Test B pre/postemergence morningglory; type: in vivo, Ipomoea hederacea
Procedure, shortened: as §1

wheat = test: Test B pre/postemergence wheat; type: in vivo, Triticum aestivum
Procedure, shortened: as §1

crabgrass = test: Test B pre/postemergence crabgrass; type: in vivo, Digitaria sanguinalis
Procedure, shortened: as §1

duck salad = test: Test B flood test duck salad; type: in vivo, Heteranthera limosa
Procedure, shortened: as §2

purple nutsedge = test: Test B pre/postemergence purple nutsedge; type: in vivo, Cyperus rotundus
Procedure, shortened: as §1

cocklebur = test: Test B pre/postemergence cocklebur; type: in vivo, Xanthium strumarium
Procedure, shortened: as §1

pigweed = test: Test B pre/postemergence pigweed; type: in vivo, Amaranthus retroflexus
Procedure, shortened: as §1

bamyardgrass = test: Test B flood test barnyardgrass; type: in vivo, Echinochloa crus-galli
Procedure, shortened: as §2

[1] = Preemergence, Rate 62 g/ha, scale of 0 to 10 where 0 is no effect and 10 is complete control
[2] = Preemergence, Rate 125 g/ha, scale 0 to 10, 0 is no effect, 10 is complete control
[3] = Preemergence, Rate 250 g/ha, scale 0 to 10, 0 is no effect, 10 is complete control
[4] = Preemergence, Rate 500 g/ha, scale 0 to 10, 0 is no effect, 10 is complete control
[5] = Rate 62 g/ha, Postemergence, scale 0 to 10 (0 no effect, 10 complete control)
[6] = Postemergence, Rate 125 g/ha, scale 0 to 10, 0 is no effect, 10 is complete control
[7] = Postemergence, Rate 500 g/ha, scale 0 to 10, 0 is no effect, 10 is complete control
[8] = Preemergence, Rate 500 g/ha, scale of 0 to 10 where 0 is no effect and 10 is complete control
[9] = Rate 62 g/ha, flood test species, Pre-emergence, visual evaluation after twelve to sixteen days
[10] = Rate 125 g/ha, under heading Pre-emergence, flood test species, visual evaluation after twelve to sixteen days
[11] = Rate 250 g/ha, Pre-emergence (flood test species), scale 0 to 10, 0 is no effect, 10 is complete control
[12] = Rate 500 g/ha, Pre-emergence section of Table B, 0 to 10 scale (0 no effect, 10 complete control)
[13] = Postemergence, Rate 250 g/ha, scale 0 to 10

## CC(C)N(C(=O)n1oc(=O)n(CC2=NCCCO2)c1=O)c1ccccc1 [Compound 494]
bedstraw; [1]
  Plant response rating, Bedstraw: 0
bedstraw; [2]
  Bedstraw plant response rating: 0
bedstraw; [3]
  Bedstraw plant response rating: 0
bedstraw; [4]
  Bedstraw plant response rating: 0
bedstraw; [5]
  Bedstraw plant response rating: 0
velvetleaf; [6]
  Velvetleaf plant response rating: 0
velvetleaf; [7]
  Plant response rating, Velvetleaf: 0
velvetleaf; [1]
  Plant response rating, Velvetleaf: 0
velvetleaf; [2]
  Velvetleaf plant response rating: 0
velvetleaf; [8]
  Velvetleaf plant response rating: 0
velvetleaf; [5]
  Velvetleaf plant response rating: 0
rice; [9]
  Plant response rating, Rice (0 to 10 scale, 0 is no effect, 10 is complete control): 0
rice; [10]
  Rice plant response rating (0 to 10 scale, 0 is no effect, 10 is complete control): 0
rice; [11]
  Rice plant response rating: 0
rice; [12]
  Rice plant response rating: 0
blackgrass; [6]
  Blackgrass plant response rating: 0
blackgrass; [13]
  Blackgrass plant response rating: 0
blackgrass; [7]
  Plant response rating, Blackgrass: 0
blackgrass; [1]
  Plant response rating, Blackgrass: 0
blackgrass; [2]
  Blackgrass plant response rating: 0
blackgrass; [3]
  Blackgrass plant response rating: 0
blackgrass; [8]
  Blackgrass plant response rating: 0
blackgrass; [5]
  Blackgrass plant response rating: 0
Surinam grass; [6]
  B. signalgrass plant response rating: 0
Surinam grass; Postemergence, Rate 250 g/ha, scale 0 to 10, 0 no effect, 10 complete control
  B. signalgrass plant response rating: 0
Surinam grass; [7]
  Plant response rating, B. signalgrass: 0
Surinam grass; [1]
  Plant response rating, B. signalgrass: 0
Surinam grass; [2]
  B. signalgrass plant response rating: 0
Surinam grass; [3]
  B. signalgrass plant response rating: 0
Surinam grass; [4]
  B. signalgrass plant response rating: 0
Surinam grass; [5]
  B. signalgrass plant response rating: 0
Giant foxtail; [6]
  Giant foxtail plant response rating: 0
Giant foxtail; [7]
  Plant response rating, Giant foxtail: 0
Giant foxtail; [1]
  Plant response rating, Giant foxtail: 0
Giant foxtail; [2]
  Giant foxtail plant response rating: 0
Giant foxtail; [8]
  Giant foxtail plant response rating: 0
Giant foxtail; [5]
  Giant foxtail plant response rating: 0
soybean; [6]
  Soybean plant response rating: 0
soybean; [7]
  Plant response rating, Soybean: 1
soybean; [1]
  Plant response rating, Soybean: 0
soybean; [2]
  Soybean plant response rating: 1
soybean; [8]
  Soybean plant response rating: 1
soybean; [5]
  Soybean plant response rating: 0
Smallflower flatsedge; [9]
  Plant response rating, S. Flatsedge (0 to 10 scale, 0 is no effect, 10 is complete control): 0
Smallflower flatsedge; [10]
  S. Flatsedge plant response rating (0 to 10 scale, 0 is no effect, 10 is complete control): 0
Smallflower flatsedge; [11]
  S. Flatsedge plant response rating: 0
Smallflower flatsedge; [12]
  S. Flatsedge plant response rating: 0
Sugar beet; [6]
  Sugarbeets plant response rating: 0
Sugar beet; [7]
  Plant response rating, Sugarbeets: 0
Sugar beet; [1]
  Plant response rating, Sugarbeets: 0
Sugar beet; [2]
  Sugarbeets plant response rating: 0
Sugar beet; [8]
  Sugarbeets plant response rating: 0
Sugar beet; [5]
  Sugarbeets plant response rating: 0
Wild oat; [6]
  Wild oats plant response rating: 0
Wild oat; [7]
  Plant response rating, Wild oats: 0
Wild oat; [1]
  Plant response rating, Wild oats: 0
Wild oat; [2]
  Wild oats plant response rating: 0
Wild oat; [8]
  Wild oats plant response rating: 0
Wild oat; [5]
  Wild oats plant response rating: 0
rape; [6]
  Rape plant response rating: 0
rape; [7]
  Plant response rating, Rape: 0
rape; [1]
  Plant response rating, Rape: 0
rape; [2]
  Rape plant response rating: 0
rape; [8]
  Rape plant response rating: 0
rape; [5]
  Rape plant response rating: 0
corn; [6]
  Corn plant response rating: 0
corn; [13]
  Corn plant response rating: 0
corn; [7]
  Plant response rating, Corn: 0
corn; [1]
  Plant response rating, Corn: 0
corn; [2]
  Corn plant response rating: 0
corn; [8]
  Corn plant response rating: 0
corn; [5]
  Corn plant response rating: 0
morningglory; [6]
  Morningglory plant response rating: 0
morningglory; [7]
  Plant response rating, Morningglory: 0
morningglory; [1]
  Plant response rating, Morningglory: 0
morningglory; [2]
  Morningglory plant response rating: 0
morningglory; [8]
  Morningglory plant response rating: 0
morningglory; [5]
  Morningglory plant response rating: 0
wheat; [6]
  Wheat plant response rating: 0
wheat; [7]
  Plant response rating, Wheat: 0
wheat; [1]
  Plant response rating, Wheat: 0
wheat; [2]
  Wheat plant response rating: 0
wheat; [8]
  Wheat plant response rating: 0
wheat; [5]
  Wheat plant response rating: 0
crabgrass; [6]
  Crabgrass plant response rating: 0
crabgrass; [1]
  Plant response rating, Crabgrass: 0
crabgrass; [2]
  Crabgrass plant response rating: 0
crabgrass; [8]
  Crabgrass plant response rating: 0
crabgrass; [5]
  Crabgrass plant response rating: 0
Duck salad; [9]
  Plant response rating, Ducksalad (0 to 10 scale, 0 is no effect, 10 is complete control): 0
Duck salad; [10]
  Ducksalad plant response rating (0 to 10 scale, 0 is no effect, 10 is complete control): 0
Duck salad; [11]
  Ducksalad plant response rating: 0
Duck salad; [12]
  Ducksalad plant response rating: 0
Purple nutsedge; [6]
  Nutsedge plant response rating: 0
Purple nutsedge; [7]
  Plant response rating, Nutsedge: 0
Purple nutsedge; [1]
  Plant response rating, Nutsedge: 0
Purple nutsedge; [2]
  Nutsedge plant response rating: 0
Purple nutsedge; [8]
  Nutsedge plant response rating: 0
Purple nutsedge; [5]
  Nutsedge plant response rating: 0
cocklebur; [6]
  Cocklebur plant response rating: 0
cocklebur; [13]
  Cocklebur plant response rating: 0
cocklebur; [7]
  Plant response rating, Cocklebur: 0
cocklebur; [1]
  Plant response rating, Cocklebur: 0
cocklebur; [2]
  Cocklebur plant response rating: 0
cocklebur; [3]
  Cocklebur plant response rating: 0
cocklebur; [8]
  Cocklebur plant response rating: 0
cocklebur; [5]
  Cocklebur plant response rating: 0
pigweed; [6]
  Redroot pigweed plant response rating: 0
pigweed; [7]
  Plant response rating, Redroot pigweed: 0
pigweed; [1]
  Plant response rating, Redroot pigweed: 0
pigweed; [2]
  Redroot pigweed plant response rating: 0
pigweed; [8]
  Redroot pigweed plant response rating: 0
pigweed; [5]
  Redroot pigweed plant response rating: 0
bamyardgrass; [9]
  Plant response rating, Barnyardgrass (0 to 10 scale, 0 is no effect, 10 is complete control): 0
bamyardgrass; [10]
  Barnyardgrass plant response rating (0 to 10 scale, 0 is no effect, 10 is complete control): 0
bamyardgrass; [11]
  Barnyardgrass plant response rating: 0
bamyardgrass; [12]
  Barnyardgrass plant response rating: 0
